This note sets out measurements from US20090081197A1 (Palatin Technologies, Inc., priority 2007, published 2009).

Usually inhibition stands for the drop in the measured response relative to a control, in per cent. The EC50 is the concentration needed to bring the measured effect to its halfway point. A low value points to higher potency in that assay. Broadly, the Ki is the dissociation constant of the complex between target and ligand, obtained from inhibition or displacement.

In one experiment the target is T1, MC1-R (Mus musculus, UniProt Q01727).
T1 construct: B-16 mouse melanoma cells (containing MC1-R); endogenous in cells
T1 sequence (Q01727 whole entry): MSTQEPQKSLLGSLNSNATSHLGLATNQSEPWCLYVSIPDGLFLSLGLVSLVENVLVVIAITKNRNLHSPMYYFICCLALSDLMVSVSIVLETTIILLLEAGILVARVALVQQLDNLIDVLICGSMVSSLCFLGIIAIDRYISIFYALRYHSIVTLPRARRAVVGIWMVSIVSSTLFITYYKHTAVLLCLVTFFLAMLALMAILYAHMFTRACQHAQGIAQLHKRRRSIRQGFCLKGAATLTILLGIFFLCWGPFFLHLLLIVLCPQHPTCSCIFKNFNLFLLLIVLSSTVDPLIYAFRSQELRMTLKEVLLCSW
Description: Competitive inhibition assay using [I^125]-NDP-α-MSH, B-16 mouse melanoma cell membranes. The following applies: for inhibition at 1 µM: 1 μM test compound, read-out: Inhibition at 1 μM (NDP-α-MSH) In Normal System, MC1-R; for Ki: read-out: Ki (nM) (NDP-α-MSH) In Normal System, MC1-R. In kind it is binding. The procedure: (§1) The ligand concentration used was 0.4 nM for MC3-R and MC5-R, 0.2 nM for MC4-R and 0.1 nM for B16-F10 (MC1-R) membranes. In certain experiments, hMC1-R was also employed.
(§2) The assay mixture was incubated for 90 minutes at room temperature, then filtered and the membranes washed three times with ice cold buffer. The filter was dried and counted in a gamma counter for remaining radioactivity bound to the membranes. […] Each assay was conducted in triplicate and the actual mean values are described, with results less than 0% reported as 0%.

Experiment [1] in a line: Penile erection induction in male rats. In kind it is in vivo. As to conditions: rat. The procedure:
Penile erection induction. The ability of compounds to induce penile erection (PE) in male rats was evaluated with selected compounds. Male Sprague-Dawley rats weighing 200-250 g were kept on a 12 hour on/off light cycle with food and water ad libitum. All behavioral studies were performed between 10 A.M. and 5 P.M. Groups of 4-8 rats were treated with compounds at a variety of doses via intravenous (IV) or intracerebroventricular (ICV) routes. Immediately after treatment, rats were placed into individual polystyrene cages (27 cm long, 16 cm wide, and 25 cm high) for behavioral observation. […] Controls utilized carrier without the test compound. Mean PEs in control groups were 0.17 to 0.5 PEs/rat by IV administration in various experiments and between 1-2 PEs/rat by ICV administration in various experiments, and thus only PEs with statistically relevant increases over the mean PEs in control groups are reported as inducing PEs. A PE response in IV animals greater than the mean PEs in control groups but less than 1.0 PEs/rat, particularly with less than all animals responding, was treated as equivocal, and not necessarily distinguishable from vehicle control. In selected instances, compounds with equivocal results in the IV model were tested for penile response in an ICV model, and compounds without a statistically relevant increase over the mean PEs in ICV control groups were determined to not induce PEs.

Experiment [2] is described as follows: IP (and IN) food intake, mice. The following applies: mouse, IP, 4 hours. In kind it is in vivo. The procedure: IV and IP food intake and body weight change. Change in food intake and body weight was evaluated for selected compounds. Male Sprague-Dawley rats or male C57BL/6 mice were utilized. Animals were individually housed in conventional plexiglass hanging cages and maintained on a controlled 12 hour on/off light cycle. Water and powdered (LabDiet, 5P00 Prolab RMH 3000) or pelleted (Harlan Teklad 2018 18% Protein Rodent Diet) food was provided ad libitum. For 1 week before treatment, 24-hour food intake and body weight change was recorded to assess a baseline for the group during vehicle treatment. The rats were dosed IV with vehicle or selected compounds (0.5-3 mg/kg, and in some cases up to 10 mg/Kg) or dosed intraperitoneally (IP) with vehicle or selected compounds (0.5-10 mg/kg, and in some cases up to 50 mg/kg). Mice were dosed IP. […] The changes in body weight and food intake for the 48 hour and 72 hour periods after dosing were also measured to determined reversal of changes in body weight and food intake effects back to baseline levels.

In a further experiment the target is MC3-R (Homo sapiens, UniProt P41968). Briefly: Competitive inhibition assay using [I^125]-NDP-α-MSH, hMC3-R membranes. The following applies: for inhibition at 1 µM: 1 μM test compound, read-out: Inhibition at 1 μM (NDP-α-MSH) In Normal System, MC3-R. In kind it is binding. Details: expressed in transfected cells. As to the method: as §1, §2
Sequence of MC3-R (P41968 whole entry): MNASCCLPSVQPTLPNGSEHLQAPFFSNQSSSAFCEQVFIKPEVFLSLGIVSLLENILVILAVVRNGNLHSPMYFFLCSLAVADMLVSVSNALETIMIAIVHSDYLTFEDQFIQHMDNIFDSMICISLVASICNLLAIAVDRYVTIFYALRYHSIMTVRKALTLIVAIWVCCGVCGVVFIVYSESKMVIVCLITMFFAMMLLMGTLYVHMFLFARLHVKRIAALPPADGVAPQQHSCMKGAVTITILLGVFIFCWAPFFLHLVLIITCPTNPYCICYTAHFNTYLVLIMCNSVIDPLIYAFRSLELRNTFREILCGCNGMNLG
Another experiment deals with MC5-R (Homo sapiens, UniProt P33032). Description: Competitive inhibition assay using [I^125]-NDP-α-MSH, hMC5-R membranes. In kind it is binding. Also noted: expressed in transfected cells. The following applies: for inhibition at 1 µM: 1 μM test compound, read-out: Inhibition at 1 μM (NDP-α-MSH) In Normal System, MC5-R. As to the method: as §1, §2
Sequence of MC5-R (P33032 whole entry): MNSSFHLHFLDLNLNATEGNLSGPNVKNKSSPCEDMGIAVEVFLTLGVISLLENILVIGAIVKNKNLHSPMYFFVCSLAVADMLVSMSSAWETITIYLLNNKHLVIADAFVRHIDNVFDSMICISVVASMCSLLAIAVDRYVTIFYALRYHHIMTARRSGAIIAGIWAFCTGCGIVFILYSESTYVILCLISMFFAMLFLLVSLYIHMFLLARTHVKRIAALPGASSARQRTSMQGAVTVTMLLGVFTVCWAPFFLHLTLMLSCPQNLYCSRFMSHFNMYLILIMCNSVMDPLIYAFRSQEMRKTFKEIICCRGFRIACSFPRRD
The target in experiment [3] is T2, MC4-R (Homo sapiens, UniProt P32245). Briefly: cAMP functional activity assay in HEK-293 cells, normal system. It is filed as cell-based. Details: expressed in transfected cells; host or cells: HEK-293. The following applies: for intrinsic activity at MC4-R in a normal system: NDP-α-MSH = 1.0; for functional status at MC4-R in cAMP assay: normal system, 1 μM concentration where stated. As to the method:
General method for EC50 determination in functional activity assay. […] Data analysis and EC50 values were determined using nonlinear regression analysis with Prism Graph-Pad software.
Functional status. The agonist/antagonist status with respect to MC1-R, MC-3R, MC4-R and MC5-R of certain compounds of the invention was determined. Antagonistic activity was determined by measuring the inhibition of α-MSH-induced or NDP-α-MSH-induced cAMP levels following exposure to graded doses of compounds as in the preceding descriptions.
Assay for agonist. Evaluation of the molecules to elicit a functional response in HEK-293 cells expressing MC4-R was accomplished by measuring the accumulation of intracellular cAMP following treatment. Confluent HEK-293 cells expressing MC4-R receptors were detached by enzyme free cell suspension buffer. […] The cells were plated in a 96 well plates at a density of 0.5×10^5 cells per well and pre-incubated for 30 minutes. Test compounds (dissolved in dimethylsulfoxide (DMSO) at a concentration range of 0.05-5000 nM) were added in a total assay volume of 200 μL and cells were incubated for 1 hour at 37° C. The concentration of DMSO was always held at 1% in the assay mixture. NDP-α-MSH was used as the reference agonist. […] Data analysis and EC50 values were determined by using nonlinear regression analysis with Prism Graph-Pad software. […] Compounds with a response ratio of less than 0.1 (10%) were evaluated for antagonistic activity.

For experiment [4], the target named is T2, MC4-R. Briefly: Competitive inhibition assay using [I^125]-NDP-α-MSH, hMC4-R membranes. In kind it is binding. Details: host or cells: TREx-293 (HEK-293 stably expressing Tet repressor). The following applies: for inhibition at 1 µM: 1 μM test compound, read-out: Inhibition at 1 μM (NDP-α-MSH) In Normal System, MC4-R. As to the method:
as §1, §2

The target of experiment [5] is T2, MC4-R. Briefly: cAMP agonist stimulation, low receptor density system (0.1 ng/mL doxycycline). As to conditions: for Efficacy/Intrinsic Activity: 0.1 ng/mL doxycycline, low receptor density hMC4-R system, NDP-α-MSH maximal cAMP = 1.0.
For experiment [6], the target named is T2, MC4-R. Description: cAMP agonist stimulation, high receptor density system (10 ng/mL doxycycline). As to conditions: for Efficacy/Intrinsic Activity: 10 ng/mL doxycycline, high receptor density hMC4-R system, NDP-α-MSH maximal cAMP = 1.0.
[7] abbreviates: 10 mg/kg, read-out: maximal decrease in food intake.

T2 sequence (P32245 whole entry): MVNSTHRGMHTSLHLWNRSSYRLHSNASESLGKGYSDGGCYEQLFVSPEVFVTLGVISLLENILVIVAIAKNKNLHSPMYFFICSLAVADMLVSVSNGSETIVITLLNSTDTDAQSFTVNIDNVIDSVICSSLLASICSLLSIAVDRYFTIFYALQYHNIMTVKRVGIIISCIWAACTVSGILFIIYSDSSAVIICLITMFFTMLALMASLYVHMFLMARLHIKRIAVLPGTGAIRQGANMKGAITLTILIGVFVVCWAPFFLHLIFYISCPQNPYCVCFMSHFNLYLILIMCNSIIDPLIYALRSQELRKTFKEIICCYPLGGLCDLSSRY

Regarding `C[C@@H]1CN(C(=O)[C@H](N)Cc2ccc(Cl)cc2)[C@@H](CCCNC(=N)N)CN1CCc1ccc2ccccc2c1` [Example 28, N-{3-[1-[2(R)-Amino-3-(4-chloro-phenyl)-propionyl]-5(R)-methyl-4-(2-naphthalen-2-yl-ethyl)-piperazin-2(S)-yl]-propyl}-guanidine], the inhibition at 1 µM on MC1-R stood at 64%; at MC3-R, 70%; at MC5-R it was 61%; on MC4-R [4], 97%. In addition, the “Penile Erection IV” value in [1] (IV) is listed as “No”. Besides, the penile erection response result in experiment [1] (IV, 0.003 to 3 mg/kg) is reported as “no penile erections”. Further, in experiment [2] (3 mg/kg), the “maximal decrease in food intake” value is listed as 46%. Besides, the “intrinsic activity at MC4-R in a normal system” value at MC4-R [3] (normal receptor density system) worked out at 0.8. Also, the “functional status at MC4-R in cAMP assay” value at MC4-R [3] is “agonist (intrinsic activity of 0.7 (70%) or higher is classified as an agonist)”. The EC50 was 106 nM at MC4-R [5] and 24 nM at MC4-R [6]. For the same molecule, the “Efficacy/Intrinsic Activity” value on MC4-R [5] is recorded as 0.29; on MC4-R [6] it was 0.75.

For `Cc1ccc(C[C@@H](N)C(=O)N2C[C@@H](C)N(CCc3ccc4ccccc4c3)C[C@@H]2CCCNC(=N)N)c(C)c1` [Example 27, N-{3-[1-[2(R)-Amino-3-(2,4-dimethyl-phenyl)-propionyl]-5(R)-methyl-4-(2-naphthalen-2-yl-ethyl)-piperazin-2(S)-yl]-propyl}-guanidine], the inhibition at 1 µM turned out to be 9% on MC1-R, 62% at MC3-R, 59% on MC5-R and 100% at MC4-R [4]. The Ki at MC1-R was 1230 nM. Further, the “Penile Erection ICV” value in [1] (ICV) was “No”. Besides, the penile erection response result is recorded as “no penile erection response” in experiment [1] (ICV, 1 and 3 nmole); “no penile erections” in experiment [1] (IV, 1 and 3 mg/kg). Also, in experiment [1] (IV), the “Penile Erection IV” value is “No”. Also, the inhibition in vivo at 3 mg/kg in [2] (3 mg/kg, read-out: maximal decrease in food intake) is 47%. In experiment [2] (setting [7]), the inhibition in vivo at 10 mg/kg was found to be 88%. In addition, the “intrinsic activity at MC4-R in a normal system” value on MC4-R [3] (normal receptor density system) worked out at 0.2. Moreover, the “functional status at MC4-R in cAMP assay” value at MC4-R [3] is “partial agonist (intrinsic activity between 0.1 (10%) and 0.7 (70%) is classified as a partial agonist)”. In addition, the “Efficacy/Intrinsic Activity” value is “None” on MC4-R [5] and 0.61 on MC4-R [6]. The molecule further returned an EC50 on MC4-R [6] of 129 nM.

As for `C[C@@H]1CN(C(=O)[C@H](N)Cc2ccc3ccccc3c2)[C@@H](CCCNC(=N)N)CN1C(=O)Cc1ccc2ccccc2c1` [Example 33, N-{3-[(2S)-1-[(R)-2-Amino-3-(naphthlene-2-yl)-propionyl]-5(R)-methyl-4-(2-naphthalen-2-yl-acetyl)-piperazin-2-yl]-propyl}-guanidine], the inhibition at 1 µM came to 43% at MC1-R, 40% at MC3-R, 50% on MC5-R and 89% on MC4-R [4]. The inhibition constant (Ki) at MC1-R amounted to 227 nM; at MC3-R (read-out: Ki (nM) (NDP-α-MSH) In Normal System, MC3-R) it was 596 nM; on MC5-R (read-out: Ki (nM) (NDP-α-MSH) In Normal System, MC5-R), 548 nM; at MC4-R [4] (read-out: Ki (nM) (NDP-α-MSH) In Normal System, MC4-R), 19 nM. Further, the inhibition in vivo at 10 mg/kg in [2] (setting [7]) was 25%. Besides, the EC50 was 42 nM on MC4-R [3] (normal receptor density system) and 50 nM at MC4-R [6].

As for `CC(=O)N[C@H](Cc1ccc(C)cc1C)C(=O)N1C[C@@H](C)N(CCc2ccc3ccccc3c2)C[C@@H]1CCCNC(=N)N` [Example 25, N-{1(R)-(2,4-Dimethyl-benzyl)-2-[2(S)-(3-guanidino-propyl)-5(R)-methyl-4-(2-naphthalen-2-yl-ethyl)-piperazin-1-yl]-2-oxo-ethyl}-acetamide], the inhibition at 1 µM came out at 28% on MC1-R, 75% at MC3-R, 89% on MC5-R and 100% on MC4-R [4]. Further, the inhibition constant (Ki) on MC1-R came to 568 nM. Besides, in [2] (10 mg/kg), the “maximal decrease in food intake” value was found to be 34%. The “Efficacy/Intrinsic Activity” value on MC4-R [5] and at MC4-R [6] was “None” in each case.

For `CC(=O)N[C@H](Cc1ccc2ccccc2c1)C(=O)N1C[C@@H](CC(C)C)N(CCc2ccc3ccccc3c2)C[C@@H]1CCCNC(=N)N` [Example 12, N-{2-[2(S)-(3-Guanidino-propyl)-5(R)-isobutyl-4-(2-naphthalen-2-yl-ethyl)-piperazin-1-yl]-1(R)-naphthalen-2-ylmethyl-2-oxo-ethyl}-acetamide], the inhibition at 1 µM at MC1-R came out at 0%; at MC3-R, 40%; at MC5-R, 64%; at MC4-R [4], 100%. Also, the Ki on MC1-R stood at 4620 nM. Further, the “maximal decrease in food intake” value in [2] (10 mg/kg) is listed as 46%. The “Efficacy/Intrinsic Activity” value on MC4-R [5] and at MC4-R [6] was “None” in each case.
